Laboratory results published in patent publication US20200325509A1, “Microorganisms and Methods in the Fermentation of Benzylisoquinoline Alkaloids” (Intrexon Corporation, priority 2017, published 2020).

Key:
[1] = stability of salutaridinol 7-O-acetate in chloroform and aqueous conditions
[2] = target: THS2 (Papaver somniferum, UniProt A0A2U9GGW3); assay: direct in vitro THS assay (kinetic analysis of THS2); conditions: for inhibition of THS2 activity on (7S)-salutaridinol 7-O-acetate: added to the direct assay
Sequence of THS2 (A0A2U9GGW3 whole entry): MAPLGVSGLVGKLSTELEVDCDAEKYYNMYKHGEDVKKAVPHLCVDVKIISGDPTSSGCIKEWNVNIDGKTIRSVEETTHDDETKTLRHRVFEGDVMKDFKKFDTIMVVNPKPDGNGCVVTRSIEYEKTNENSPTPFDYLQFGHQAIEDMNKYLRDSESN

[3] = substrate of purified recombinant THS2, direct assay quenched after 30 sec

| SMILES | formation of m/z 330-byproduct ([1]; exposure to aqueous conditions) [%] | time of formation of m/z 330-byproduct ([1]; exposure to aqueous conditions) [min] | stability ([1]; in chloroform) | pH optimum ([2]; THS2 activity on this substrate, direct assay 30 sec, 40 μM substrate) | positive cooperativity (η) ([2]; substrate of purified recombinant THS2, direct assay) | KA [2, 3] [µM] | Vmax [2, 3] [nmol min^1 μg^−1] | inhibition of THS2 activity on (7S)-salutaridinol 7-O-acetate [2] | thebaine production by THS2 directly from the substance ([2]; pH 7.0) |
| --- | --- | --- | --- | --- | --- | --- | --- | --- | --- |
| COC1=C[C@]23CCN(C)[C@H](Cc4ccc(OC)c(O)c42)C3=C[C@@H]1OC(C)=O [(7S)-salutaridinol 7-O-acetate] | > 70 | < 2 | relatively stable | 8.0 | 2.3 | 20 | 4.0 | – | – |
| COC1=C[C@]23CCN(C)[C@H](Cc4ccc(OC)c(O)c42)C3=C[C@@H]1O [(7S)-salutaridinol] | – | – | – | – | – | – | – | marginally inhibited | did not produce thebaine |
| COC1=C[C@]23CCN(C)[C@H](Cc4ccc(OC)c(O)c42)C3=CC1=O [salutaridine] | – | – | – | – | – | – | – | marginally inhibited | – |
